Test [1] deals with T1, TcRPI-B (Trypanosoma cruzi, UniProt A0ACM8Q8A9). Particulars: known TcRPI-B inhibitors, FIG. 2; cited from earlier work.
In test [2] the target is T1, TcRPI-B. In words: TcRPI-B coupled enzyme assay following consumption of NADH at 340 nm. It counts as biochemical. To be noted: for activity at 200 µM: compound 0.2 mM; for activity at 200 µM / activity at 500 µM / activity at 1000 µM / activity at 2000 µM: 2 mM R5P, mean of three determinations ± SD, read-out: percentage of TcRPI-B activity; for activity at 500 µM: compound 0.5 mM; for activity at 1000 µM: compound 1.0 mM; for activity at 2000 µM: compound 2.0 mM. On the procedure: (§1) The activity of TcRPI-B was determined by a coupled enzyme assay following consumption of NADH at 340 nm, at 30° C., in a Beckman Coulter DU®600 Spectrophotometer, using a mixture containing 50 mM triethanolamine (pH 7.5), 5 mM MgCl2, […], 0.025 mM thiamine pyrophosphate, 1 unit of transketolase (EC 2.2.1.1), 1 unit of ribulose 5-phosphate 3-epimerase (EC 5.1.3.1), 20 units of triosephosphate isomerase (EC 5.3.1.1), 2 units of α-glycerophosphate dehydrogenase (EC 1.1.1.8), and 2 mM R5P for the screening of the inhibitors. For the determination of Ki, the concentration of R5P was 0.4 mM, 0.8 mM, and 2.0 mM.
(§2) The activity of TcRPE-1 was determined in the same reaction mixture, without TcRPI-B, and replacing R5P by 4 mM ribulose 5-phosphate (Ru5P). […] The reaction was started with the addition of TcRPI-B and further incubated for 10 minutes in the same tube, to surpass the lag observed with the recombinant RPI, and then the mixture was transferred to the spectrophotometer cuvette and the linear part of the progress curve was registered for 15 minutes. The screening of the inhibitors was performed using them at 0, 0.2, 0.5, 1.0 and 2.0 mM for both enzymes, TcRPI-B and TcRPE-1, and for the Ki determination for compound B (FIG. 4) the concentrations used were: 0, 10, 20, 40, 60 and 80 μM, at each R5P concentration used.

The test system of the next test is TcRPE-1. Briefly: TcRPE-1 coupled enzyme assay (same reaction mixture, without TcRPI-B, 4 mM Ru5P). It counts as biochemical, Trypanosoma cruzi. Particulars: mean of three determinations ± SD. On the procedure: as §1, §2
In test [3] the target is T1, TcRPI-B. In words: Trypsin digestion LC/MSMS of TcRPI-B exposed to Compound B. It counts as binding. Particulars: 500 μM compound, 100 μM TcRPI-B, 4° C., 30 minutes. Here is the method: Sample preparation: Purified TcRPI-B was buffer exchanged into 50 mM ammonium bicarbonate (pH 8.0) by using a PD-10 desalting column (GE Life Sciences). The concentration of TcRPI-B was adjusted to 100 μM for the monomer [TcRPI-B: M.W.=19,816 g/mol; ε280=5,120 M^−1 cm^−1] using an Agilent 8453 UV-Visible spectrophotometer. A protein test sample was incubated with compound B (FIG. 2) at a final concentration of 500 μM at 4° C. for 30 minutes and a control sample was prepared that was in the absence of compound B. Samples to be analyzed by LC/MSMS were first quantitated for protein content using a Pierce™ bicinchoninic acid (BCA) Protein Assay Kit and normalized to 50 μg of protein by diluting the appropriate amount of sample in 50 mM ammonium bicarbonate. Normalized samples were digested with trypsin at a 50:1 protein:trypsin concentration. Samples were incubated for 4 hours and then aliquoted for LC-MS analysis.
Nanoflow LC: Chromatographic separation was achieved using a Thermo Scientific™ EASY-nLC™ 1200 system (Bremen, Germany). Pico-frit columns were purchased from New Objective (Woburn, Mass.) and bomb packed to a length of 20-30 cm with reverse phase ReproSil-Pur® 120 Å C18-AQ 3 μm particles (Dr. Maisch, Germany). […]

Where two headings read alike, the source gives them in different places.

A word on the Ki: it is the equilibrium dissociation constant of an inhibitor or competing ligand from its target. On to `O=C[C@H](O)[C@H](O)[C@H](O)[C@H](O)COP(=O)(O)O` [AlI6P], for which the Ki at TcRPI-B [1] was 15 mM.

As to `O=C(NO)[C@H](O)[C@H](O)COP(=O)(O)O` [Compound 4PEH, 4-phospho-D-erythronohydroxamic acid], the Ki on TcRPI-B [1] is 1.2 mM.

On to `O=C(Cc1ccccc1)NCCOP(=O)(O)O` [Compound A, 2-(2-phenylacetamido)ethyl dihydrogen phosphate], for which, on TcRPI-B [2], the activity at 200 µM turned out to be 98.1 ± 3.2%, the activity at 500 µM is 97.4 ± 0.5%, the activity at 1000 µM was found to be 95.3 ± 4.2% and the activity at 2000 µM came to 89.2 ± 3.5%. The “percentage of TcRPE-1 activity” value in the test with TcRPE-1 (compound 0.2 mM) worked out at 100 ± 5%. Further, the “percentage of TcRPE-1 activity” value with TcRPE-1 (compound 0.5 mM) turned out to be 91.9 ± 4.3%. Also, the “percentage of TcRPE-1 activity” value with TcRPE-1 (compound 1.0 mM) was found to be 87.4 ± 3.1%. Besides, the “percentage of TcRPE-1 activity” value in the test with TcRPE-1 (compound 2.0 mM) was determined as 85.9 ± 4.4%.

`O=C(CI)NCCOP(=O)(O)O` [Compound B, 2-(2-iodoacetamido)ethyl dihydrogen phosphate]: the “covalent labeling of TcRPI-B peptide V66-R86” value on TcRPI-B [3] was “bound irreversibly to C69”. On TcRPI-B [2] (Dixon plots, R5P 0.4, 0.8 and 2 mM, inhibitor 0-80 μM, mean of four independent experiments, read-out: inhibition constant (Ki)), the Ki stood at 0.0055 ± 0.0001 mM. At TcRPI-B [2], the activity at 200 µM is 25.2 ± 3.5%, the activity at 500 µM was found to be 7.5 ± 3.9%, the activity at 1000 µM turned out to be 1.2 ± 0.3% and the activity at 2000 µM is 0%. Further, on TcRPI-B [2] (plot of [R5P]/V vs. [B], three lines parallel), the type of inhibition entry is reported as “competitive inhibition”. In addition, in the test with TcRPE-1 (compound 0.2 mM), the “percentage of TcRPE-1 activity” value came to 89.5 ± 4%. Also, the “percentage of TcRPE-1 activity” value with TcRPE-1 (compound 0.5 mM) stood at 89.5 ± 4%. In addition, the “percentage of TcRPE-1 activity” value in the test on TcRPE-1 (compound 1.0 mM) is listed as 103 ± 5%. In addition, the “percentage of TcRPE-1 activity” value in the test on TcRPE-1 (compound 2.0 mM) amounted to 57.4 ± 0.4%.

For `O=C(CBr)NCCOP(=O)(O)O` [Compound C, 2-(2-bromoacetamido)ethyl dihydrogen phosphate], on TcRPI-B [2], the activity at 200 µM came out at 78.5 ± 4.8%, the activity at 500 µM came out at 62.7 ± 5.9%, the activity at 1000 µM came to 41.3 ± 2.7% and the activity at 2000 µM was 18.3 ± 2.5%. Besides, in the test with TcRPE-1 (compound 0.2 mM), the “percentage of TcRPE-1 activity” value worked out at 91.1 ± 5.1%. Further, the “percentage of TcRPE-1 activity” value with TcRPE-1 (compound 0.5 mM) was 85.8 ± 4.4%. Further, the “percentage of TcRPE-1 activity” value with TcRPE-1 (compound 1.0 mM) came out at 77.3 ± 7.5%. The “percentage of TcRPE-1 activity” value in the test on TcRPE-1 (compound 2.0 mM) was determined as 65.1 ± 5.2%.

For `O=C(CCl)NCCOP(=O)(O)O` [Compound D, 2-(2-chloroacetamido)ethyl dihydrogen phosphate], the activity at 200 µM at TcRPI-B [2] was found to be 107 ± 9%. Besides, the activity at 500 µM at TcRPI-B [2] is 105 ± 7%. Moreover, the activity at 1000 µM on TcRPI-B [2] worked out at 98.5 ± 2.1%. For the same molecule, the activity at 2000 µM on TcRPI-B [2] stood at 83.7 ± 8.9%. For the same molecule, the “percentage of TcRPE-1 activity” value in the test on TcRPE-1 (compound 0.2 mM) was 100 ± 6%; in the test with TcRPE-1 (compound 0.5 mM), 103 ± 5%; in the test on TcRPE-1 (compound 1.0 mM) it was 95.5 ± 7.9%; in the test on TcRPE-1 (compound 2.0 mM) it was 82.6 ± 12%.

On to `O=C(CF)NCCOP(=O)(O)O` [Compound E, 2-(2-fluoroacetamido)ethyl dihydrogen phosphate], for which the “percentage of TcRPE-1 activity” value in the test on TcRPE-1 (compound 0.2 mM) is 111 ± 10%; with TcRPE-1 (compound 0.5 mM), 103 ± 7%; in the test on TcRPE-1 (compound 1.0 mM) it was 93.2 ± 11.1%; in the test on TcRPE-1 (compound 2.0 mM) it was 83.5 ± 9.7%.
